We go through two compounds from PubChem BioAssay AID1259407 (Chemical Carcinogenesis Research Information System (CCRIS), 2018).

The subject of this series is CCRIS mutagenicity, Ames/micronucleus/aberration tests. Kind of series: CCRIS mutagenicity studies.

Molecules are shown by their SMILES. Activity calls are given as the source filed them. The rule behind the calls is not given here.

For the compound `COc1cc(-c2ccc(N=C=O)c(OC)c2)ccc1N=C=O`, the mutagenic call is “active; positive” (Test System: AMES SALMONELLA TYPHIMURIUM, Strain/Indicator: TA98, Metabolic Activation: HAMSTER, LIVER, S-9, AROCLOR 1254, Method: STANDARD PLATE); “active; positive” (Test System: AMES SALMONELLA TYPHIMURIUM, Strain/Indicator: TA98, Metabolic Activation: HAMSTER, LIVER, S-9, Method: STANDARD PLATE); “active; positive” (Test System: AMES SALMONELLA TYPHIMURIUM, Strain/Indicator: TA98, Metabolic Activation: MOUSE, LIVER, S-9, AROCLOR 1254, Method: STANDARD PLATE); “active; positive” (Test System: AMES SALMONELLA TYPHIMURIUM, Strain/Indicator: TA98, Metabolic Activation: MOUSE, LIVER, S-9, Method: STANDARD PLATE); “active; positive” (Test System: AMES SALMONELLA TYPHIMURIUM, Strain/Indicator: TA98, Metabolic Activation: RAT, LIVER, S-9, AROCLOR 1254, Method: STANDARD PLATE); “active; positive” (Test System: AMES SALMONELLA TYPHIMURIUM, Strain/Indicator: TA98, Metabolic Activation: RAT, LIVER, S-9, Method: STANDARD PLATE). The mutagenic call by setting is: (Test System: AMES SALMONELLA TYPHIMURIUM, Strain/Indicator: TA100, Metabolic Activation: HAMSTER, LIVER, S-9, AROCLOR 1254, Method: STANDARD PLATE) “inactive; negative”; (Test System: AMES SALMONELLA TYPHIMURIUM, Strain/Indicator: TA100, Metabolic Activation: HAMSTER, LIVER, S-9, Method: STANDARD PLATE) “inactive; negative”; (Test System: AMES SALMONELLA TYPHIMURIUM, Strain/Indicator: TA100, Metabolic Activation: MOUSE, LIVER, S-9, AROCLOR 1254, Method: STANDARD PLATE) “inactive; negative”; (Test System: AMES SALMONELLA TYPHIMURIUM, Strain/Indicator: TA100, Metabolic Activation: MOUSE, LIVER, S-9, Method: STANDARD PLATE) “inactive; negative”; (Test System: AMES SALMONELLA TYPHIMURIUM, Strain/Indicator: TA100, Metabolic Activation: NONE, Method: STANDARD PLATE) “inactive; negative”; (Test System: AMES SALMONELLA TYPHIMURIUM, Strain/Indicator: TA1535, Metabolic Activation: HAMSTER, LIVER, S-9, AROCLOR 1254, Method: STANDARD PLATE) “inactive; negative”. The mutagenic call is “inactive; negative” (Test System: AMES SALMONELLA TYPHIMURIUM, Strain/Indicator: TA1535, Metabolic Activation: HAMSTER, LIVER, S-9, Method: STANDARD PLATE); “inactive; negative” (Test System: AMES SALMONELLA TYPHIMURIUM, Strain/Indicator: TA1535, Metabolic Activation: MOUSE, LIVER, S-9, AROCLOR 1254, Method: STANDARD PLATE); “inactive; negative” (Test System: AMES SALMONELLA TYPHIMURIUM, Strain/Indicator: TA1535, Metabolic Activation: MOUSE, LIVER, S-9, Method: STANDARD PLATE); “inactive; negative” (Test System: AMES SALMONELLA TYPHIMURIUM, Strain/Indicator: TA1535, Metabolic Activation: NONE, Method: STANDARD PLATE); “inactive; negative” (Test System: AMES SALMONELLA TYPHIMURIUM, Strain/Indicator: TA1535, Metabolic Activation: RAT, LIVER, S-9, AROCLOR 1254, Method: STANDARD PLATE); “inactive; negative” (Test System: AMES SALMONELLA TYPHIMURIUM, Strain/Indicator: TA1535, Metabolic Activation: RAT, LIVER, S-9, Method: STANDARD PLATE). In addition, the mutagenic call runs as follows: (Test System: AMES SALMONELLA TYPHIMURIUM, Strain/Indicator: TA1537, Metabolic Activation: HAMSTER, LIVER, S-9, AROCLOR 1254, Method: STANDARD PLATE) “inactive; negative”; (Test System: AMES SALMONELLA TYPHIMURIUM, Strain/Indicator: TA1537, Metabolic Activation: HAMSTER, LIVER, S-9, Method: STANDARD PLATE) “inactive; negative”; (Test System: AMES SALMONELLA TYPHIMURIUM, Strain/Indicator: TA1537, Metabolic Activation: MOUSE, LIVER, S-9, AROCLOR 1254, Method: STANDARD PLATE) “inactive; negative”; (Test System: AMES SALMONELLA TYPHIMURIUM, Strain/Indicator: TA1537, Metabolic Activation: MOUSE, LIVER, S-9, Method: STANDARD PLATE) “inactive; negative”; (Test System: AMES SALMONELLA TYPHIMURIUM, Strain/Indicator: TA1537, Metabolic Activation: NONE, Method: STANDARD PLATE) “inactive; negative”; (Test System: AMES SALMONELLA TYPHIMURIUM, Strain/Indicator: TA1537, Metabolic Activation: RAT, LIVER, S-9, AROCLOR 1254, Method: STANDARD PLATE) “inactive; negative”. The mutagenic call was “inactive; negative” (Test System: AMES SALMONELLA TYPHIMURIUM, Strain/Indicator: TA1537, Metabolic Activation: RAT, LIVER, S-9, Method: STANDARD PLATE); “active; positive” (Test System: AMES SALMONELLA TYPHIMURIUM, Strain/Indicator: TA1538, Metabolic Activation: HAMSTER, LIVER, S-9, AROCLOR 1254, Method: STANDARD PLATE); “active; positive” (Test System: AMES SALMONELLA TYPHIMURIUM, Strain/Indicator: TA1538, Metabolic Activation: HAMSTER, LIVER, S-9, Method: STANDARD PLATE); “active; positive” (Test System: AMES SALMONELLA TYPHIMURIUM, Strain/Indicator: TA1538, Metabolic Activation: MOUSE, LIVER, S-9, AROCLOR 1254, Method: STANDARD PLATE); “active; positive” (Test System: AMES SALMONELLA TYPHIMURIUM, Strain/Indicator: TA1538, Metabolic Activation: MOUSE, LIVER, S-9, Method: STANDARD PLATE); “active; positive” (Test System: AMES SALMONELLA TYPHIMURIUM, Strain/Indicator: TA1538, Metabolic Activation: RAT, LIVER, S-9, AROCLOR 1254, Method: STANDARD PLATE). For the same compound, the mutagenic call (Test System: AMES SALMONELLA TYPHIMURIUM, Strain/Indicator: TA1538, Metabolic Activation: RAT, LIVER, S-9, Method: STANDARD PLATE) was “active; positive”; the mutagenic call (Test System: E. COLI, Strain/Indicator: WP2 UVRA, Metabolic Activation: HAMSTER, LIVER, S-9, AROCLOR 1254, Method: STANDARD PLATE) is “inactive; negative”; the mutagenic call (Test System: E. COLI, Strain/Indicator: WP2 UVRA, Metabolic Activation: HAMSTER, LIVER, S-9, Method: STANDARD PLATE) was “inactive; negative”; the mutagenic call (Test System: E. COLI, Strain/Indicator: WP2 UVRA, Metabolic Activation: MOUSE, LIVER, S-9, AROCLOR 1254, Method: STANDARD PLATE) was “inactive; negative”; the mutagenic call (Test System: E. COLI, Strain/Indicator: WP2 UVRA, Metabolic Activation: MOUSE, LIVER, S-9, Method: STANDARD PLATE) is “inactive; negative”; the mutagenic call (Test System: E. COLI, Strain/Indicator: WP2 UVRA, Metabolic Activation: NONE, Method: STANDARD PLATE) is “inactive; negative”. Besides, the mutagenic call runs as follows: (Test System: E. COLI, Strain/Indicator: WP2 UVRA, Metabolic Activation: RAT, LIVER, S-9, AROCLOR 1254, Method: STANDARD PLATE) “inactive; negative”; (Test System: E. COLI, Strain/Indicator: WP2 UVRA, Metabolic Activation: RAT, LIVER, S-9, Method: STANDARD PLATE) “inactive; negative”.

For the compound `C/C=C/C=C/C(=O)O`, the mutagenic call (Test System: AMES SALMONELLA TYPHIMURIUM, Strain/Indicator: TA97A, Metabolic Activation: NONE, Method: PREINCUBATION) is “inactive; negative”; the mutagenic call (Test System: AMES SALMONELLA TYPHIMURIUM, Strain/Indicator: TA97A, Metabolic Activation: RAT, LIVER, S-9, AROCLOR 1254, Method: PREINCUBATION) is “inactive; negative”; the mutagenic call (Test System: AMES SALMONELLA TYPHIMURIUM, Strain/Indicator: TA102, Metabolic Activation: NONE, Method: PREINCUBATION) was “inactive; negative”; the mutagenic call (Test System: AMES SALMONELLA TYPHIMURIUM, Strain/Indicator: TA102, Metabolic Activation: RAT, LIVER, S-9, AROCLOR 1254, Method: PREINCUBATION) is “inactive; negative”; the mutagenic call (Test System: CHINESE HAMSTER V-79, Strain/Indicator: V-79/6-THIOGUANINE, Metabolic Activation: NONE, Method: FLASK ASSAY) is “active; positive”.
